Marks after values point to notes of the source that are not given here.
Experiments:
[1] = test system: ST941PBR PDX; experiment: In vivo efficacy, palbociclib-resistant ST941PBR PDX model; conditions: Day 28, 10 mg/kg BID PO
Description: Female NSG mice (Jackson Lab) were subcutaneously implanted with fragment (27 mm^3 to 64 mm^3 size) into the dorsal region. All mice for T47D, HCC1428 and ST941 PBR studies were supplemented with 8.5 μg/mL estradiol water (β-Estradiol Sigma-Aldrich, cat #E2758-5G) and gave ad libitum till end of study. For the in vivo efficacy studies, tumor volume and body weights were measured twice a week. Tumor volume was calculated using the [(Length×Width×Width)/2)] formula. TGI was calculated as 100*(1−ΔT/ΔC). The ΔC (ΔT) was obtained by subtracting the mean tumor burden in the vehicle (treated) group on the first day of treatment (Day 0) from the mean tumor burden in vehicle (treated) group on the assessment day. Statistical analysis was performed using ANCOVA when the mean tumor volume in vehicle treated mice reached tumor cutoff size.
The ST941 PBR palbociclib resistant model was obtained from XENOSTART™ LLC, San Antonio, Texas. We established model in house by continuous treatment of the ST941 PBR tumor bearing mice with PD-0332991 at 50 mg/kg, PO QD plus fulvestrant at 10 mg/kg, SC twice in the first week, then weekly thereafter. To propagate donors for the TGI study, tumors were transplanted to recipient mice. One week after the re-implantation, the recipient mice received continuous treatment with palbociclib plus fulvestrant (dosing schedule described above). After 1 to 2 serial in vivo propagation with the same treatment regimen, the resistant tumors in the range of 700 to 800 mm^3 were re-implanted for a study expansion. The remaining tumor fragments were viably frozen for future use.
The live donor mice were established by implanting ST941 PBR (p11) tumor fragments. Once reaching a range of 700 to 800 mm^3, the donor tumors were subsequently transplanted into secondary recipient mice for a study expansion. To maintain the resistant clones, the ST941 PBR tumor bearing mice were treated with PD-0332991 at 50 mg/kg, PO. QD plus fulvestrant at 10 mg/kg, SC twice in the first week, then weekly afterwards for 10 weeks. […] TGI was assessed on Day 28 post first dose.

[2] = test system: MCF7 Cells; experiment: Combination cell proliferation assay, MCF7; type: cell-based, human
Description: (§1) The combination effects of PF-07104091 with palbociclib were evaluated in a cell proliferation assay with MCF7 and T47D BC cell lines. […] Drug combinations were analyzed using the Dose Equivalence Principle, and the Loewe Volume score. When modeling synergy using the Dose Equivalence Principle, the Loewe Volume score for the combination compounds should be greater than the compound self-cross controls, and the Combination Index score for the combination compounds should be less than compound self-cross controls. […] Furthermore, the isobolograms set to an anti-proliferation threshold at 70% confirm a synergistic response.

[3] = test system: T-47D Cells; experiment: Combination cell proliferation assay, T47D; type: cell-based, human
Description: as §1

[4] = test system: NCI-H526 Model; experiment: In vivo efficacy, NCI-H526 small cell lung cancer model; parameters: species or system mice
Description: Female NSG (Jackson Lab) or Nu/nu (CRL) were subcutaneously implanted with tumor cells or fragments (8 mm^3 to 27 mm^3) into the dorsal region. For the MCF7 study, mice were supplemented with estrogen (sc implanted, 17β-estradiol, 0.36 mg, 90-day release pellet, Innovative Research of America, cat no. NE-121).
To establish the NCI-H526 model, tumor cells (4×10^6 cells/mouse with 50% Cultrex® Basement Membrane Matrix) were subcutaneously implanted in female Nu/nu mice. […] PF-07104091, Palbociclib at 10 mg/kg and CDK 2/4/6 inhibitor were administered (p.o.) BID (7 hr apart). TGI was assessed on Day 15 post first dose (or Day 20 post tumor cell implant).

[5] = test system: HCC1428; experiment: In vivo efficacy, HCC1428 breast cancer model; parameters: species or system mice; conditions: Day 42, 10 mg/kg BID PO, 10 mg/kg
Description: (§2) The HCC1428 model was established by implanting passage 4 tumor fragments into recipient mice. To establish the HCC1428 donor mice, tumor cells (5×10^6 cell/mouse with 50% Cultrex® Basement Membrane Matrix) were subcutaneously implanted in female NSG mice. […] All mice received treatment continuously until Day 42. TGI was assessed on Day 42 post first dose.

[6] = test system: T47D; experiment: In vivo efficacy, T47D breast cancer model; parameters: species or system mice; conditions: Day 41, 10 mg/kg BID PO
Description: as §2, with “T47D” for “HCC1428”, “3” for “4”, “41.” for “42.”, “41” for “42”

CC(=O)c1c(C)c2cnc(Nc3ccc(N4CCNCC4)cn3)nc2n(C2CCCC2)c1=O [Palbociclib, palbociclib, reference compound]
TGI % [1]: 15% | Loewe Volume [2]: −0.16 | Best CI ([2]; Best CI Level 70): 0.94 | Loewe Volume [3]: −0.25 | Best CI ([3]; Best CI Level 70): 0.96 | TGI % ([4]; 10 mg/kg BID PO, Day 15): 33% | TGI % ([4]; 10 mg/kg BID PO, Day 15, listed as palbociclib): 33% | TGI % ([4]; 50 mg/kg SID PO, Day 15): 22% | TGI % ([4]; 50 mg/kg SID PO, Day 15, listed as palbociclib): 22% | TGI % [5]: 44* % | TGI % ([5]; listed as palbociclib): 44% | TGI % [6]: 72* %

Source: patent publication US20250127759A1, “METHODS AND DOSING REGIMENS COMPRISING A CDK2 INHIBITOR FOR THE TREATMENT OF CANCER” (PFIZER INC., priority 2021, published 2025)
